Measurements published in PMC7925099, “Identification of an Antiretroviral Small Molecule That Appears To Be a Host-Targeting Inhibitor of HIV-1 Assembly” (Journal of Virology, 2021).
Read-outs that look alike come from different tables or passages of the source.

Legend:
HIV-1 NL4-3 RLuc = assay: MT-2 spreading infection assay (inhibition of HIV-1 replication); conditions: for SI (CC50/EC50): from average values
Description: Inhibition of HIV-1 viral replication was assayed in a spreading infection using MT-2 cells and NL4-3 RLuc reporter virus. For dose-response curves, compounds were initially diluted with DMSO to 100-fold the starting concentration in a 96-well plate and subjected to a series of 3-fold dilutions in DMSO for a total of eight or nine dilutions. If a single compound concentration was tested, the compound was diluted to 100-fold the desired concentration in DMSO. Compounds were then diluted 50-fold with infection media prepared by diluting NL4-3 RLuc virus stock to 400 IU/100 μl with complete RPMI. Then, 100 μl of 50-fold-diluted compound was transferred to 20,000 MT-2 cells that were preseeded in 96-well plates in 100 μl of complete RPMI for a final volume of 200 μl, followed by incubation at 37°C for 96 h. The final MOI in infected plates was 0.02, and the final DMSO concentration in all wells was 1%. All assays were run with three replicates. For each replicate, one well received DMSO only, and one well received medium only for normalization and background correction. […] Plates were read on a luminescence plate reader (Synergy H1; BioTek Instruments, Inc.).
(§3) EC50 and CC50 values were determined in Excel using four-parameter logistic regression analysis of dose-response data generated from the viral inhibition or cytotoxicity assays, respectively. […] Average EC50 and CC50 values were calculated using the geometric mean and average values were reported with the geometric standard deviation (GSD).

in vitro = conditions: human
Description: (§4) For each viral inhibition assay, a cytotoxicity assay was performed in parallel on uninfected cells by adding 1/10 volume of alamarBlue (Thermo Fisher, Waltham, MA; DAL1199) to the plates, followed by thorough mixing. AlamarBlue-treated plates were incubated for 2 to 3 h at 37°C (the timing was optimized for the linear signal), mixed well, and read using a fluorescence plate reader with 560 nm and 590 nm as the excitation and emission settings, respectively (Synergy H1; BioTek Instruments, Inc.).
as §3

HIV-1 NL4-3 = format: cell-based; conditions: MT-2 cells, 37 weeks of selection
XRN1 = target: T1, XRN1 (Homo sapiens, UniProt Q8IZH2); assay: Biotin-XRN1 proximity ligation assay; format: cell-based; conditions: 293T-HIV; for PLA spots/cell (biotin-XRN1 PLA): 10 μM, 16 h
T1 construct: endogenous in cells; host or cells: 293T-HIV cells
T1 sequence (Q8IZH2 whole entry): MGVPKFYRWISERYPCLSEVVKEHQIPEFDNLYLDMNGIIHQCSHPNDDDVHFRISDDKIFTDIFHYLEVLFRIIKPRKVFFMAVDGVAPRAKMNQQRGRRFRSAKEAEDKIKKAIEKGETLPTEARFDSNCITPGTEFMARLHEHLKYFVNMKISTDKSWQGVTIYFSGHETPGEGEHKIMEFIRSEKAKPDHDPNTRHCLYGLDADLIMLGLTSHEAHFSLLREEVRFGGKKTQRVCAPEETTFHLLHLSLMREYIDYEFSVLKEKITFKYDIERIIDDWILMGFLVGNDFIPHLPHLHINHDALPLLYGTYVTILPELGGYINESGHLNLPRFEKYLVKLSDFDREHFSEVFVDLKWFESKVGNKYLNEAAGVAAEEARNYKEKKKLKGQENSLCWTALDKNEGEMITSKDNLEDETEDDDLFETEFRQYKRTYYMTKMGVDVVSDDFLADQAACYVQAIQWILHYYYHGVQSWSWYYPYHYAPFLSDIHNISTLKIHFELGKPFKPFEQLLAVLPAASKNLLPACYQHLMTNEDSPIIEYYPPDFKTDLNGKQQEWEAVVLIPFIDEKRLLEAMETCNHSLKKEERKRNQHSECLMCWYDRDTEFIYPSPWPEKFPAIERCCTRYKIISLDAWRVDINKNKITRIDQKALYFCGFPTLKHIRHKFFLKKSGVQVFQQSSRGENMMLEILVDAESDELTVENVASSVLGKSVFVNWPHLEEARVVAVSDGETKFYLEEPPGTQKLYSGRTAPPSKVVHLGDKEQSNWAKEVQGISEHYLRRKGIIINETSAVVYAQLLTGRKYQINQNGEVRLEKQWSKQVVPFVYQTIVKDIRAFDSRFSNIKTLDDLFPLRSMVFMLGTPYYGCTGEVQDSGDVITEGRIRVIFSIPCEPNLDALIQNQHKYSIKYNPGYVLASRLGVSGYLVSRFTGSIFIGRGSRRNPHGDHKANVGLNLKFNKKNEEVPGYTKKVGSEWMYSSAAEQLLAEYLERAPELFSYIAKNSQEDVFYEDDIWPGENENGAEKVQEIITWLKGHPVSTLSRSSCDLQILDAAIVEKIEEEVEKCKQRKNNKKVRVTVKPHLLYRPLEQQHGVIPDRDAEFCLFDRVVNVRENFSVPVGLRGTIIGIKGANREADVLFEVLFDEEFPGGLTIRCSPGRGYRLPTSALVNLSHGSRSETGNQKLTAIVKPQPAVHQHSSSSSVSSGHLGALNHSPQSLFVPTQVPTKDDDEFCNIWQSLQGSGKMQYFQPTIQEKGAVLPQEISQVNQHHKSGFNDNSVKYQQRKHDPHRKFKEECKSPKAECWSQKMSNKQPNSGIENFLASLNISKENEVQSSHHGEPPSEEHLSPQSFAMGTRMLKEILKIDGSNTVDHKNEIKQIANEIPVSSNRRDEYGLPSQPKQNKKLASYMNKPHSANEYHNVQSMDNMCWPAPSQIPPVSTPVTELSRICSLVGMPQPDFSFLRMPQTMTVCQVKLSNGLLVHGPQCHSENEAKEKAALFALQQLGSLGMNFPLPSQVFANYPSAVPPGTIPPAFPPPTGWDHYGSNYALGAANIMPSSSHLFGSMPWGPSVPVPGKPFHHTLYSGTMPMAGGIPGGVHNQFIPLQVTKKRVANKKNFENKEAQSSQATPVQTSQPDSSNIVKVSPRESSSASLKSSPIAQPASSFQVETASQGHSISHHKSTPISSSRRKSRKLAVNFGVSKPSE
Description: (§1) For each treatment, one-half of a Grace Biolabs Culture Well silicone chamber (Millipore-Sigma; GBL103380) was attached to a cover glass (Carl Zeiss, Oberkochen, Germany; catalog no. 474030-9000-000) to create four chambers on the cover glass. Each chambered cover glass was placed into a well of a 6-well plate, and the chambers were coated with poly-L-lysine and allowed to dry overnight. The next day, ∼4 × 10^3 293T/17 or 293T-HIV cells were seeded into each chamber, followed by incubation at 37°C for 5 to 6 h. After the cells adhered, they were treated with compound or DMSO. At 16 h posttreatment, the cells were fixed for 15 min in 4% paraformaldehyde in PBS (pH 7.4), permeabilized in 0.5% (wt/vol) saponin in PBS (pH 7.4) for 10 min, and blocked in Duolink blocking solution (Millipore-Sigma) at 37°C for 30 min. […] For quantification, 5 to 10 fields, each containing at least three IF-positive cells, were chosen at random and imaged using identical exposure times for each channel (100 to 150 ms for the PLA channel in red; 0.5 to 1 s for the IF channel in green, depending on the IF primary antibody; and 20 ms for the DAPI channel in blue). […] The ROIs identified in the IF channel were applied to a maximum intensity z projection of the PLA channel, and PLA spots within the ROI were counted using the find maxima function in Fiji, with noise threshold optimized to identify only PLA spots. Nuclei from each field were counted manually to determine the number of cells. […]

DDX6 and XRN1 = assay: DDX6-XRN1 proximity ligation assay in compound-treated cells; format: cell-based, human; conditions: 10 μM; 16 h; 293T-HIV
Description: as §1, with “DMSO.” for “DMSO. At 16 h posttreatment, the cells were fixed for 15 min in 4% paraformaldehyde in PBS (pH 7.4), permeabilized in 0.5% (wt/vol) saponin in PBS (pH 7.4) for 10 min, and blocked in Duolink blocking solution (Millipore-Sigma) at 37°C for 30 min.”

HIV-1 Gag = assay: Biotin-Gag proximity ligation assay; format: cell-based; conditions: for biotin-Gag PLA spots/cell: 16 h
Description: (§2) For each treatment, one-half of a Grace Biolabs Culture Well silicone chamber (Millipore-Sigma; GBL103380) was attached to a cover glass (Carl Zeiss, Oberkochen, Germany; catalog no. 474030-9000-000) to create four chambers on the cover glass. Each chambered cover glass was placed into a well of a 6-well plate, and the chambers were coated with poly-L-lysine and allowed to dry overnight. The next day, ∼4 × 10^3 293T/17 or 293T-HIV cells were seeded into each chamber, followed by incubation at 37°C for 5 to 6 h. After the cells adhered, they were treated with compound or DMSO. At 16 h posttreatment, the cells were fixed for 15 min in 4% paraformaldehyde in PBS (pH 7.4), permeabilized in 0.5% (wt/vol) saponin in PBS (pH 7.4) for 10 min, and blocked in Duolink blocking solution (Millipore-Sigma) at 37°C for 30 min. The cells were incubated in primary antibodies using the following concentrations: for the Gag-biotin PLA, mouse αGag p24 was used at 0.2 μg/ml, and rabbit αbiotin was used at 4 μg/ml; for the biotin-ABCE1 PLA, rabbit αABCE1 was used at 0.3 μg/ml, and mouse αbiotin was used at 0.7 μg/ml; for the biotin-DDX6 PLA, rabbit αDDX6 was used at 0.5 μg/ml and mouse αbiotin was used at 0.3 μg/ml; for the ABCE1-DDX6 PLA, rabbit αABCE1 was used at 0.3 μg/ml, and mouse αDDX6 was used at 0.3 μg/ml; for the biotin-G3BP1 PLA, rabbit αG3BP1 was used at 0.025 μg/ml, and mouse αbiotin was used at 0.2 μg/ml; for the TIAR-G3BP1 PLA, rabbit αG3BP1 was used at 0.025 μg/ml, and mouse αTIAR was used at 0.025 μg/ml; for the biotin-XRN1 PLA, rabbit α XRN1 was used at 0.5 μg/ml, and mouse αbiotin was used at 0.2 μg/ml; and for the DDX6-XRN1 PLA, rabbit αXRN1 was used at 0.5 μg/ml, and mouse αDDX6 was used at 0.5 μg/ml. For the NI control PLA experiments, NI control antibodies from the relevant species were used at the same concentration as the primary antibody they replaced. Primary incubation was followed by incubation with Duolink reagents (Millipore-Sigma): oligonucleotide-linked secondary antibody, ligation mix, and red amplification/detection mix, with washes in between, in accordance with the Duolink protocol. For concurrent IF analysis following the final 1× PLA buffer B washes, cells were incubated for 30 min at room temperature with 1:1,000 Alexa Fluor 488-anti-mouse secondary antibody. Cover glasses were mounted using Duolink in situ mounting medium with DAPI (4′,6′-diamidino-2-phenylindole; Millipore-Sigma), sealed to the glass slides with clear nail polish, allowed to dry for 24 h at room temperature, and stored at −20°C. Imaging was performed with a Zeiss Axio Observer.Z1/7 deconvolution microscope using Zeiss Plan-Apochromat 63×/aperture 1.4 objective with oil immersion, with Zen 2.6 (blue edition) software. For quantification, 5 to 10 fields, each containing at least three IF-positive cells, were chosen at random and imaged using identical exposure times for each channel (100 to 150 ms for the PLA channel in red; 0.5 to 1 s for the IF channel in green, depending on the IF primary antibody; and 20 ms for the DAPI channel in blue). Images were captured as a Z-stack of 80 to 90 0.24-μm slices that included the entire cell body and 5 μm above and below the cell (∼20 μm total). To determine the number of PLA spots per cell, image stacks were processed as follows in Fiji ([96]). First, an in-focus slice from the IF channel was selected using the Find Focused Slices plugin within ImageJ (Q. Tseng, 2020 [https://sites.google.com/site/qingzongtseng/find-focus]), and thresholding was used to generate regions of interest (ROI) that contained only cells. The ROIs identified in the IF channel were applied to a maximum intensity z projection of the PLA channel, and PLA spots within the ROI were counted using the find maxima function in Fiji, with noise threshold optimized to identify only PLA spots. Nuclei from each field were counted manually to determine the number of cells. […]

G3BP1 = target: T2, G3BP1 (Homo sapiens, UniProt Q13283); assay: Biotin-G3BP1 proximity ligation assay; format: cell-based; conditions: 293T-HIV; for PLA spots/cell (biotin-G3BP1 PLA): 10 μM, 16 h
T2 construct: endogenous in cells; host or cells: 293T-HIV cells
T2 sequence (Q13283 whole entry): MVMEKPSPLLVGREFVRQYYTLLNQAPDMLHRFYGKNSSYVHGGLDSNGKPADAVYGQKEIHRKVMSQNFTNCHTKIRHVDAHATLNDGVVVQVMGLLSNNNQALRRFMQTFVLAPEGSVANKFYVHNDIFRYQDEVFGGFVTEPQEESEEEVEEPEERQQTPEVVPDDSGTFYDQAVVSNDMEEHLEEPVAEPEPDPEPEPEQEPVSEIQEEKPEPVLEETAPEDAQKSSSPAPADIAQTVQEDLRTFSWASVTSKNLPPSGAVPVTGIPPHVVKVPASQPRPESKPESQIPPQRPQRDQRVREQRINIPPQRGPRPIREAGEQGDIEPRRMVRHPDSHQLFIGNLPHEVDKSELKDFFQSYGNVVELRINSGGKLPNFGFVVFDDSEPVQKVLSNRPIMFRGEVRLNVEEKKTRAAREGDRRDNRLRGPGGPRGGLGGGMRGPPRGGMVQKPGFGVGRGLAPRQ
Description: as §1

ABCE1 = target: T3, ABCE1 (Homo sapiens, UniProt P61221); assay: Biotin-ABCE1 proximity ligation assay; format: cell-based; conditions: for biotin-ABCE1 PLA spots/cell: 16 h
T3 construct: endogenous in cells; host or cells: 293T/17 and 293T-HIV cells
Description: as §2

TIAR and G3BP1 = assay: TIAR-G3BP1 proximity ligation assay in compound-treated cells; format: cell-based, human; conditions: 10 μM; 16 h; 293T-HIV
Description: as §1, with “DMSO.” for “DMSO. At 16 h posttreatment, the cells were fixed for 15 min in 4% paraformaldehyde in PBS (pH 7.4), permeabilized in 0.5% (wt/vol) saponin in PBS (pH 7.4) for 10 min, and blocked in Duolink blocking solution (Millipore-Sigma) at 37°C for 30 min.”

DDX6 = target: T4, DDX6 (Homo sapiens, UniProt P26196); assay: Biotin-DDX6 proximity ligation assay; format: cell-based; conditions: for biotin-DDX6 PLA spots/cell: 16 h
T4 construct: endogenous in cells; host or cells: 293T/17 and 293T-HIV cells
T4 sequence (P26196 1-483): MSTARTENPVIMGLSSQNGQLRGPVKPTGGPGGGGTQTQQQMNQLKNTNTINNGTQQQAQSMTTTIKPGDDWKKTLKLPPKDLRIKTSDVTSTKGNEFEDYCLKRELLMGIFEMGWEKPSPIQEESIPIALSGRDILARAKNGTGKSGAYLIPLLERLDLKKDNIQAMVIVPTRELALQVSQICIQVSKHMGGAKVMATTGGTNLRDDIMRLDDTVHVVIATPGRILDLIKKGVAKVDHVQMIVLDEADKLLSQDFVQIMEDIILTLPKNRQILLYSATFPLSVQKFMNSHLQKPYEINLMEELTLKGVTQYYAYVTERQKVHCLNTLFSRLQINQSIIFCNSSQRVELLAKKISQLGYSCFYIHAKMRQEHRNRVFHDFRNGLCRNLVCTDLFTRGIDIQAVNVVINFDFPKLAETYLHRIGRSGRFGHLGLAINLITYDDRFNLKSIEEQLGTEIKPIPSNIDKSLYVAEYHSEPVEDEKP
Description: as §2

[1] = Human immunodeficiency virus 1, NL43, MT2

Description for MT-2 cells: as §4, §3

COc1cc2c(cc1OCc1ccccc1)CCNC2/C=C/c1ccccc1 (centres unmarked) [PAV-492]
EC50 (HIV-1 NL4-3 RLuc; [1]): 1.54 µM
SI (CC50/EC50) (HIV-1 NL4-3 RLuc; MT-2 cells): > 6
CC50 (in vitro; CC50 (μM)): > 10 µM

COc1cc2c(cc1OCc1ccccc1)CCNC2/C=C/c1ccccc1C (centres unmarked) [PAV-245]
EC50 (HIV-1 NL4-3 RLuc; [1]): 0.755 µM
SI (CC50/EC50) (HIV-1 NL4-3 RLuc; MT-2 cells): 4.8
CC50 (in vitro; CC50 (μM)): 3.6 µM

COc1cc2c(cc1OCc1ccccc1)CCNC2/C=C/c1cccc(OCc2ccccc2)c1 (centres unmarked) [PAV-494]
EC50 (HIV-1 NL4-3 RLuc; [1]): 0.244 µM
SI (CC50/EC50) (HIV-1 NL4-3 RLuc; MT-2 cells): 17
CC50 (in vitro; CC50 (μM)): 4.1 µM

COc1ccc(/C=C/C2NCCc3cc(OCc4ccccc4)c(OC)cc32)cc1 (centres unmarked) [PAV-493]
SI (CC50/EC50) (HIV-1 NL4-3 RLuc; MT-2 cells): 37
CC50 (in vitro; CC50 (μM)): 21 µM

Cc1c(O)cccc1C(=O)N[C@@H](CSc1ccccc1)[C@H](O)CN1C[C@H]2CCCC[C@H]2C[C@H]1C(=O)NC(C)(C)C [nelfinavir, reference compound]
resistance level reached: compound concentration allowing virus replication, fold higher than the EC50 (HIV-1 NL4-3): 16 fold

N#CCC(NC(=O)CCOCCOCCNC(=O)CCCC[C@@H]1SCC2NC(=O)NC21)C(=O)NCCCCOc1ccccc1 (some centres unmarked) [PAV-543, reference compound]
PLA spots/cell (biotin-XRN1 PLA) (XRN1): 3.8
PLA spots/cell (DDX6-XRN1 PLA) (DDX6 and XRN1): 77.4
biotin-Gag PLA spots/cell (HIV-1 Gag; 10 μM, 293T-HIV (HIV +)): 9.3
EC50 (HIV-1 NL4-3 RLuc; Human immunodeficiency virus 1, NL43, T-cell, read-out: EC50MT-2): > 100 µM
PLA spots/cell (biotin-G3BP1 PLA) (G3BP1): 1.6
biotin-ABCE1 PLA spots/cell (ABCE1; 10 μM, 293T-HIV (HIV +)): 4.5
PLA spots/cell (TIAR-G3BP1 PLA) (TIAR and G3BP1): 51.5
CC50 (in vitro; CC50): > 100 µM
biotin-DDX6 PLA spots/cell (DDX6; 10 μM, 293T-HIV (HIV +)): 12.6

COc1ccc(/C=C/C2NCCc3cc(OCc4ccccc4)c(OC)cc32)cc1OCc1ccccc1 (centres unmarked) [PAV-220]
EC50 (HIV-1 NL4-3 RLuc; [1]): 0.163 µM
SI (CC50/EC50) (HIV-1 NL4-3 RLuc; MT-2 cells): 23
CC50 (in vitro; CC50 (μM)): 3.8 µM

COc1ccc(/C=C/C2NCCc3cc(OCc4ccccc4)c(OC)cc32)c(C)c1 (centres unmarked) [PAV-218]
SI (CC50/EC50) (HIV-1 NL4-3 RLuc; MT-2 cells): 66
CC50 (μM) (MT-2 cells): 9.7 ×/÷ 1.2 μM

COc1cc(C)c(C=CC2NCCc3cc(OCc4ccccc4)c(OC)cc32)cc1OCCCCNC(=O)C(CC1(C)N=N1)NC(=O)CCOCCOCCNC(=O)CCCCC1SCC2NC(=O)NC21 (centres unmarked) [PAV-818]
PLA spots/cell (biotin-XRN1 PLA) (XRN1): 5.3
colocalization with the P-body marker XRN1 (XRN1; PLA): does not colocalize
PLA spots/cell (DDX6-XRN1 PLA) (DDX6 and XRN1): 35.2
biotin-Gag PLA spots/cell (HIV-1 Gag; 5 μM, 293T-HIV (HIV +)): 32.6
biotin-Gag PLA spots/cell (HIV-1 Gag; 10 μM, 293T-HIV (HIV +)): 51.5
biotin-Gag PLA spots/cell (HIV-1 Gag; 10 μM, uninfected 293T (HIV −)): 7.1
biotin-Gag PLA spots/cell (HIV-1 Gag; 20 μM, 293T-HIV (HIV +)): 111.8
fold more biotin-Gag PLA spots than with PAV-543 (HIV-1 Gag; both at 10 μM, 293T-HIV): 5.5 fold
EC50 (HIV-1 NL4-3 RLuc; Human immunodeficiency virus 1, NL43, T-cell, 96 h, read-out: EC50 for inhibition of HIV-1 replication): 0.951 µM
selectivity index (CC50/EC50) (HIV-1 NL4-3 RLuc; MT-2 cells, from the shown dose-response curve): ~32
PLA spots/cell (biotin-G3BP1 PLA) (G3BP1): 6.3
colocalization with the stress granule protein G3BP1 (G3BP1; PLA): does not colocalize
biotin-ABCE1 PLA spots/cell (ABCE1; 5 μM, 293T-HIV (HIV +)): 42.0
biotin-ABCE1 PLA spots/cell (ABCE1; 10 μM, 293T-HIV (HIV +)): 64.2
biotin-ABCE1 PLA spots/cell (ABCE1; 10 μM, uninfected 293T (HIV −)): 72.9
biotin-ABCE1 PLA spots/cell (ABCE1; 20 μM, 293T-HIV (HIV +)): 104.7
fold more biotin-ABCE1 PLA spots than with PAV-543 (ABCE1; both at 10 μM, 293T-HIV): 14.3 fold
PLA spots/cell (TIAR-G3BP1 PLA) (TIAR and G3BP1): 35.0
CC50 (in vitro; CC50): ~30 µM
biotin-DDX6 PLA spots/cell (DDX6; 5 μM, 293T-HIV (HIV +)): 47.4
biotin-DDX6 PLA spots/cell (DDX6; 10 μM, 293T-HIV (HIV +)): 65.1
biotin-DDX6 PLA spots/cell (DDX6; 10 μM, uninfected 293T (HIV −)): 58.0
biotin-DDX6 PLA spots/cell (DDX6; 20 μM, 293T-HIV (HIV +)): 82.9
fold more biotin-DDX6 PLA spots than in PAV-543-treated or DMSO-treated cells (DDX6; 293T-HIV): ~5.1 fold
